The values below come from publication PMC11581214, “Compound 4f, a novel brain-penetrant reversible monoacylglycerol inhibitor, ameliorates neuroinflammation, neuronal cell loss, and cognitive impairment in mice with kainic acid-induced neurodegeneration” (PLOS ONE, 2024).

Assay [1] deals with T1, monoamine oxidase-B (Homo sapiens, UniProt P27338).
T1 construct: gene MAOB
T1 sequence (P27338 2-520): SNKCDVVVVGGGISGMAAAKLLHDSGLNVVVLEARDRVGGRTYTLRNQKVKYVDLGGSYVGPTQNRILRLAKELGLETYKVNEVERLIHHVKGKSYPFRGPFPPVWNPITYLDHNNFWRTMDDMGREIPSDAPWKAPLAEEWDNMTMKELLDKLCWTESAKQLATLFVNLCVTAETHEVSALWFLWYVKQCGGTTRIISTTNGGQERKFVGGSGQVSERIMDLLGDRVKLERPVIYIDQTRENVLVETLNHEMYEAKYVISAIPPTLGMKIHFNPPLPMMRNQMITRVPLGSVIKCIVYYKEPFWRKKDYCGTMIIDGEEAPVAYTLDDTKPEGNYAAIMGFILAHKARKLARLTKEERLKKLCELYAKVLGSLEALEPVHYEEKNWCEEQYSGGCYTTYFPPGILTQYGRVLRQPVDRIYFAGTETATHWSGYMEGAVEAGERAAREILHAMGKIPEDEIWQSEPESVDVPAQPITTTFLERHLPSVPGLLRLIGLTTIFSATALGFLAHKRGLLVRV
The assay can be described thus: off-target panel enzyme assay (Eurofins), single concentration […]. It is filed as biochemical.

Assay [2] deals with T2, serotonin (5-hydroxytryptamine) 2B (Homo sapiens, UniProt P41595).
T2 construct: gene HTR2B
The assay can be described thus: off-target panel of radioligand binding and functional assays (Eurofins), single concentration […].

For assay [3], the target named is T3, monoacylglycerol lipase (MAGL) (Mus musculus, UniProt O35678).
T3 construct: gene Mgll
T3 sequence (O35678 1-303): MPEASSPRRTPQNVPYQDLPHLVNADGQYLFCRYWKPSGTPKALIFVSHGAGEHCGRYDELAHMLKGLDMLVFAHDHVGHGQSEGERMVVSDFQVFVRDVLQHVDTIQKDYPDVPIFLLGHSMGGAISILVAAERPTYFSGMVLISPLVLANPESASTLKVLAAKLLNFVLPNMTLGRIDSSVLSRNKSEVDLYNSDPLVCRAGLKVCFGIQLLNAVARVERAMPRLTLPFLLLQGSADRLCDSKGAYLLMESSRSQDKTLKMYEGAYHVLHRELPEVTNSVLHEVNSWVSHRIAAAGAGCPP
The assay can be described thus: in vivo brain target occupancy by displacement of MAGL tracer T-211 (LC-MS/MS); brain 2-AG increase and AA decrease. It is filed as cell-based.

Bounds are passed on as bounds.

T2 sequence (P41595 whole entry): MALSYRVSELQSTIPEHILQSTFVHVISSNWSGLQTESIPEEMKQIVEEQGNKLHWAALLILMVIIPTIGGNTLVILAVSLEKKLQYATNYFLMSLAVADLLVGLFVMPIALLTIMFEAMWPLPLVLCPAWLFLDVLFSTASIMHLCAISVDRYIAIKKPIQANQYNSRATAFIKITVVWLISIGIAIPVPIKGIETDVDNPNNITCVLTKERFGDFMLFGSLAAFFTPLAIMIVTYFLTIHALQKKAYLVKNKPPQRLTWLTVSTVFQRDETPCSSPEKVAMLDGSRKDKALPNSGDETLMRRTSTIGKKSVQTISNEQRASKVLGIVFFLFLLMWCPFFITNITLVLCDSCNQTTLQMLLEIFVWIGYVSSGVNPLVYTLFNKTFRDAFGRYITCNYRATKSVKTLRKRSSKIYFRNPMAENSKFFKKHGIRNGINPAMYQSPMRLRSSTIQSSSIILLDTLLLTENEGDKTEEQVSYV

In the case of `Cc1ccc(COC2CN(C(=O)[C@H]3C[C@]4(COC(=O)N4)C3)C2)cc1Cl` [4f], the figures for the inhibition at 10 µM in assay [1] and in assay [2] were under 50% and 81%, respectively. This compound also displayed a receptor occupancy at 1 mg/kg in assay [3] of over 99%.

By inhibition is commonly meant the drop in the measured response relative to a control, in per cent. A higher inhibition goes with a response far below the control.
